± gives the expanded uncertainty stated by the source.
How the values were obtained:
[1] = refractive index (Na D-line) (dimensionless); settings: 293.15 K; 101.33 kPa; Liquid; Standard Abbe refractometry
[2] = Liquid, Ebulliometric method (Recirculating still)

refractive index [1] | SMILES | vapor or sublimation pressure ([2]; 332.65 K) [kPa] | vapor or sublimation pressure ([2]; 342.63 K) [kPa] | vapor or sublimation pressure ([2]; 349.06 K) [kPa] | vapor or sublimation pressure ([2]; 333.65 K) [kPa] | vapor or sublimation pressure ([2]; 343.55 K) [kPa] | vapor or sublimation pressure ([2]; 348.55 K) [kPa]
1.3957 ± 0.002 | CC(C)CO [2-methyl-1-propanol] | 12.17 ± 0.63 | 20.07 ± 0.63 | 26.53 ± 0.64 | – | – | –
1.41 ± 0.002 | CCCCCO [pentan-1-ol] | – | – | – | 3.43 ± 0.62 | 5.9 ± 0.62 | 7.67 ± 0.62

SMILES | refractive index [1] | vapor or sublimation pressure ([2]; 332.65 K) [kPa] | vapor or sublimation pressure ([2]; 342.63 K) [kPa] | vapor or sublimation pressure ([2]; 349.06 K) [kPa] | vapor or sublimation pressure ([2]; 333.65 K) [kPa] | vapor or sublimation pressure ([2]; 343.55 K) [kPa] | vapor or sublimation pressure ([2]; 348.55 K) [kPa]
CCC(C)=O [butanone] | 1.3791 ± 0.002 | 51.76 ± 0.63 | 72.71 ± 0.7 | 90.1 ± 0.79 | 52.42 ± 0.63 | 74.79 ± 0.7 | 88.29 ± 0.79
